Results reported in patent US20170334852A1, “CATIONIC LIPID” (Eisai R&D Management Co., Ltd., priority 2014, published 2017).

Assays:
[1] = Particle diameter on storage in sealed vial at 4° C., analysis (7); format: physicochemical; settings: lipid complex stored for a certain period
Procedure: In the compositions of Examples 46 to 52, each composition was stored in a sealed vial at 4° C. and the particle diameter (Z-average and polydispersity index) before the strorage, after 3 months from the storage and after 6 months from the storage was measured in the same manner as that for the composition of Example 29.

[2] = Particle diameter after mixing, PBS dialysis and storage at 4° C., analysis (9); format: physicochemical; settings: storage period, compared to the composition of Comparative Example 3
Procedure: In the compositions of Examples 53 and 54 and Comparative Example 3, the particle diameter (Z-average and polydispersity index) was measured immediately after the lipid complex was generated by mixing the siRNA diluent and the lipid solution in the preparation of each composition, after the lipid complex was dialyzed into PBS, and after storage in the sealed vial at 4° C. for 2 months and 6 months, using a particle diameter-measuring device (trade name “Zetasizer Nano ZS”, manufactured by Malvern Instruments Ltd.).

| Structure (SMILES) | Increase in particle diameter of the lipid complex during storage (in words) [1] | Increase in particle diameter of the lipid complex during storage (in words) [2] |
| --- | --- | --- |
| CCCCC/C=C\C(CCCC)COC(=O)CCCCCCCCC(CCCCCCCCCC)OC(=O)C1CCN(C)CC1 (centres unmarked) [YS-122, (Z)-1-((2-butylnon-3-en-1-yl)oxy)-1-oxoicosane-10-yl-1-methylpiperidine-4-carboxylate] | stability is high |  |
| CCCCCCCCCCC(CCCCCCCCC(=O)OCCC(CCCCC)CCCCC)OC(=O)C1CCN(C)CC1 (centres unmarked) [YS-124, 1-oxo-1-((3-pentyloctyl)oxy)icosane-10-yl-1-methylpiperidine-4-carboxylate] | stability is high | an increase in particle diameter of the lipid complex was suppressed |
| CCCCCCCCCCC(CCCCCCCCC(=O)OCC(CCCC)CCCCCC)OC(=O)C1CCN(C)CC1 (centres unmarked) [YS-120, 1-((2-butyloctyl)oxy)-1-oxoicosane-10-yl-1-methylpiperidine-4-carboxylate] | stability is high | an increase in particle diameter of the lipid complex was suppressed |
| CCCCCCCCCCC(CCCCCCCCC(=O)OC/C=C\CC(CCC)CCCC)OC(=O)C1CCN(C)CC1 (centres unmarked) [YS-123, (Z)-1-oxo-1-((5-propylnon-2-en-1-yl)oxy)icosane-10-yl-1-methylpiperidine-4-carboxylate] | stability is high |  |

Now from value to molecule, other results behind:

| Increase in particle diameter of the lipid complex during storage (in words) [1] | Structure (SMILES) | Increase in particle diameter of the lipid complex during storage (in words) [2] |
| --- | --- | --- |
| stability is high | CCCCCCCCCCC(CCCCCCCCC(=O)OCC(CCC)CC(CCC)CCC)OC(=O)C1CCN(C)CC1 (centres unmarked) [YS-125, 1-((2,4-dipropylheptyl)oxy)-1-oxoicosane-10-yl-1-methylpiperidine-4-carboxylate] |  |
| stability is high | CCCCCCCCCCC(CCCCCCCCC(=O)OCCC(CCC)C(CCC)CCC)OC(=O)C1CCN(C)CC1 (centres unmarked) [YS-126, 1-((3,4-dipropylheptyl)oxy)-1-oxoicosane-10-yl-1-methylpiperidine-4-carboxylate] |  |
